The record followed here is ChEMBL document CHEMBL1201862, “PubChem BioAssay data set” (2004).

Where “and” joins values, the source holds several entries; their conditions need not be identical. Equal values may be shown once. Calls of active or inactive are those of the source.

Assay [1] deals with Voltage-gated inwardly rectifying potassium channel KCNH2 (Homo sapiens, UniProt Q12809). The settings on record: Potency.
Assay [2] in a line: control 3'UTR Renilla luciferase suppression, dose response, counter-screen for Shn3 inhibitor project, cell-based, Clone20-Shn3RL, cherry-picked (AID 624133). It is filed as functional.
Assay [3] addresses Heat shock protein HSP 90-alpha (Homo sapiens, UniProt P07900). The class given is functional, organism-based.
Assay [4] can be described thus: Shn3 3'UTR reporter inhibitors, dose response, cell-based, Clone20 osteoblasts, firefly luciferase, cherry-picked (AID 624132).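 Also: firefly luciferase luminescence from reporter carrying the Shn3 3'UTR in osteoblasts.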 It is filed as functional.
A further assay has as its system INS1. Description: beta cell apoptosis inhibitors, cytokine rescue, dose response, luminescence, retest (AID 449756).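 Also: cell death triggered by IL-1 beta plus TNF-alpha plus IFN-gamma mixture; protective hits raise ATP signal compared with cytokine alone wells.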 It is filed as functional, cell-based. The settings on record: Rattus norvegicus.
The test system of the next assay is CHO. Description: cytotoxicity in TLR9-MyD88 CHO cells, dose response, cytotoxicity control for TLR9-MyD88 binding inhibitor project, cell-based, luminescence (AID 588339).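 Also: CHO cells stably coexpressing TLR9 and MyD88 fusions from primary screen; compound exposure lasted 48 hours before viability readout.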 It is filed as functional, hamster. The settings on record: Cricetulus griseus.
Assay [5] in a line: HepG2 cell cytotoxicity, dose response, cytotoxicity control for Shn3 inhibitor project, CellTiter-Glo, cherry-picked (AID 624134). The class given is functional, cell-based.
The nature of assay [6]: microbe, parasite or virus in culture. It is filed as functional. The settings on record: Mycobacterium tuberculosis.
In assay [7] the target is T1, Dual specificity protein phosphatase 6 (Rattus norvegicus, UniProt Q64346).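 Also: confirmatory in vitro dose-response testing of MKP-3 inhibition; recombinant His-tagged MKP-3 made in E. coli BL21 with OMFP substrate.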
T1 sequence (Q64346 whole entry): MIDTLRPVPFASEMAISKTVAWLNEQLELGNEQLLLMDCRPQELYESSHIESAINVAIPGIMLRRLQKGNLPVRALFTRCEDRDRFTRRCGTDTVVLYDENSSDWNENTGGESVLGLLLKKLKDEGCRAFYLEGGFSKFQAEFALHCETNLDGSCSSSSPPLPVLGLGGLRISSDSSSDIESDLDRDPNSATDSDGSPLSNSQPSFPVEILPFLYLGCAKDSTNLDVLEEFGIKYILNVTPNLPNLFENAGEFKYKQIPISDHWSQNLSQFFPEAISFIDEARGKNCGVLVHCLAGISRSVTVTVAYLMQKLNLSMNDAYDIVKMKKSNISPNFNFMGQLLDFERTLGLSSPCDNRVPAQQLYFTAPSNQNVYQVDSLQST
It is filed as functional.

For assay [8], the target named is Dual specificity protein phosphatase 3 (Homo sapiens, UniProt P51452). Description: SAR VHR1 Fluorescent Assay for In Vitro dose response studies Set 2. [Related pubchem assays (depositor defined):AID1654, AID1661, AID1878]. It is filed as functional.
Dual specificity protein phosphatase 3, sequence (P51452 whole entry): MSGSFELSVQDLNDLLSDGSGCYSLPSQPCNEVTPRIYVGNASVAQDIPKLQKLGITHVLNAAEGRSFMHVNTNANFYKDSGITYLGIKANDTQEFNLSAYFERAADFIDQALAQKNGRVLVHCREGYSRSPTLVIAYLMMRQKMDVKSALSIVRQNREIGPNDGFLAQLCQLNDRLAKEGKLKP
The next assay deals with T2, Phosphomannomutase 2 (Homo sapiens, UniProt O15305).
T2 sequence (O15305 whole entry): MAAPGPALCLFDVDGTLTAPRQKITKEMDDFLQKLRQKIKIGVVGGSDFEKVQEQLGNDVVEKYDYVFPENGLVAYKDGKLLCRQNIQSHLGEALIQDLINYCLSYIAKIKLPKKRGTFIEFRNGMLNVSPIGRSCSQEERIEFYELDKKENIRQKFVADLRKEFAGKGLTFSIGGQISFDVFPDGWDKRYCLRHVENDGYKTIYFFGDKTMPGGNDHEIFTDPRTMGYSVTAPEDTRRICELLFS
Description: Counter screen SAR assay for PMM2 inhibitors via a fluorescence intensity assay. [Related pubchem assays (depositor defined):AID1545, AID1574].

Assay [9] concerns the target T3, Mannose-6-phosphate isomerase (Homo sapiens, UniProt P34949).
T3 sequence (P34949 whole entry): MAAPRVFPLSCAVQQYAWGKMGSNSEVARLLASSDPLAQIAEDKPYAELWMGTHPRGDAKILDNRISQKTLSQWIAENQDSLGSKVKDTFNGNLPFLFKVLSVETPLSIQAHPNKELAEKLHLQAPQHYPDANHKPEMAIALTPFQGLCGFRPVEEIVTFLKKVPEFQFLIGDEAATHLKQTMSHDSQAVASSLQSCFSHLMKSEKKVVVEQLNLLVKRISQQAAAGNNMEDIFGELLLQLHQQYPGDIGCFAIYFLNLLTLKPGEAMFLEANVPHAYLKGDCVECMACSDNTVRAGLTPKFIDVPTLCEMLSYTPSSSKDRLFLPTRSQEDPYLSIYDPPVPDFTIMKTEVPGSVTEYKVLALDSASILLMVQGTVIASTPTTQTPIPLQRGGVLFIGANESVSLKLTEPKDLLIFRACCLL
Kind of assay: PMI enzyme inhibitors, confirmation, biochemical, fluorescence intensity (AID 1535).

Assay [10] relates to Candida albicans. Description: fluconazole resistance reversal in C. albicans, dose response, CaCi-2 strain, Alamar Blue, dry powder, set 4 (AID 488943). It is filed as functional, organism-based.
For assay [11], the system named is Candida albicans. Kind of assay: growth inhibition of azole-resistant C. albicans, dose response, CaCi-8 strain, Alamar Blue, dry powder, set 2 (AID 488909). The class given is functional, organism-based.
The subject of assay [12] is Candida albicans. Description: growth inhibition of resistant C. albicans, dose response, CaCi-8 strain, fluconazole, dry powder, set 4 (AID 488950). It is filed as functional, organism-based.
The target in assay [13] is Glyceraldehyde-3-phosphate dehydrogenase (Homo sapiens, UniProt P04406).
Glyceraldehyde-3-phosphate dehydrogenase, sequence (P04406 whole entry): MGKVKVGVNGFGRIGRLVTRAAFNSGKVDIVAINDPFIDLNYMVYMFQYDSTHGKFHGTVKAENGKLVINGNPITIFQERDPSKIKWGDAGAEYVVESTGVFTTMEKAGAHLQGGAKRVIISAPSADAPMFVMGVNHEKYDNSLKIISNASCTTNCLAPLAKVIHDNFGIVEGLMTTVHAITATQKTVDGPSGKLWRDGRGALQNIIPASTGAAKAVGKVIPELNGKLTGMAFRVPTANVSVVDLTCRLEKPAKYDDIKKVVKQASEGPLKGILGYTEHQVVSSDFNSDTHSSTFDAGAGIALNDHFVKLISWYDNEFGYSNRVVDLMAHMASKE
The next assay is described as follows: cells. The class given is functional.
In the next assay the target is Nonstructural protein 1 (Influenza A virus, UniProt Q194T2). It is filed as functional, Influenza A virus (A/California/07/2009(H1N1)).
Nonstructural protein 1, sequence (Q194T2 whole entry): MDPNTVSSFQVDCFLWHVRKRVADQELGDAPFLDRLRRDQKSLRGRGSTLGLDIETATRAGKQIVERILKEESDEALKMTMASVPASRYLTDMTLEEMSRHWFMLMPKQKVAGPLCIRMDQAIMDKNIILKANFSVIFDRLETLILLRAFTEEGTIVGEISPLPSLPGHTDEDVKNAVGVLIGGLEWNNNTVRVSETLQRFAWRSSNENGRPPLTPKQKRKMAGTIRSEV
In assay [14] the target is Alkaline phosphatase, placental type (Homo sapiens, UniProt P05187). Description: PLAP enzyme inhibitors, confirmation, biochemical, luminescence (AID 1512). It is filed as functional.
Alkaline phosphatase, placental type, sequence (P05187 whole entry): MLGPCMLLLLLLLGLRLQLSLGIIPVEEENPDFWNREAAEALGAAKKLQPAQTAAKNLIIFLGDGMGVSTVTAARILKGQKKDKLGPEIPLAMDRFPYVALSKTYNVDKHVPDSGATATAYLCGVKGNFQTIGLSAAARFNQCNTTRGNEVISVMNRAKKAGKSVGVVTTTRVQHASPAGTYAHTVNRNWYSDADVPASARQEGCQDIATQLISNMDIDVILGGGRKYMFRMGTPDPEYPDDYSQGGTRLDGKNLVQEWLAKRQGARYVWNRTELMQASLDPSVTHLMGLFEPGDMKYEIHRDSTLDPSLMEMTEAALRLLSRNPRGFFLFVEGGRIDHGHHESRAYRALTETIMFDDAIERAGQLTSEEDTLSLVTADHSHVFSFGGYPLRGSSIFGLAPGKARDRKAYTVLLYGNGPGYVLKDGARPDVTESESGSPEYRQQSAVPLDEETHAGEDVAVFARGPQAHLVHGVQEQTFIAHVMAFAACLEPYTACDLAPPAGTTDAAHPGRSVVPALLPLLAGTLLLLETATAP
For assay [15], the target named is T3, Mannose-6-phosphate isomerase. Kind of assay: human PMI inhibitors, high substrate, primary screen, biochemical, fluorescence intensity, high mannose 6-phosphate (AID 1220).
Assay [16] concerns the target Eukaryotic translation initiation factor 4E (Mus musculus, UniProt P63073). Kind of assay: eIF4E–eIF4G protein interaction inhibitors, dose response, biochemical, TR-FRET (AID 855).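 Also: potency for disrupting eIF4E binding to eIF4GI seen as loss of FRET.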 The class given is functional.
In the next assay the test system is HeLa. Kind of assay: HeLa cell cytotoxicity, dose response, cytotoxicity control for MITF activator project, CellTiter-Glo luminescence, cherry-pick samples (AID 540259). It is filed as functional, cell-based. The settings on record: Homo sapiens.
The next assay addresses T4, Hexokinase-1 (Homo sapiens, UniProt P19367).
T4 sequence (P19367 whole entry): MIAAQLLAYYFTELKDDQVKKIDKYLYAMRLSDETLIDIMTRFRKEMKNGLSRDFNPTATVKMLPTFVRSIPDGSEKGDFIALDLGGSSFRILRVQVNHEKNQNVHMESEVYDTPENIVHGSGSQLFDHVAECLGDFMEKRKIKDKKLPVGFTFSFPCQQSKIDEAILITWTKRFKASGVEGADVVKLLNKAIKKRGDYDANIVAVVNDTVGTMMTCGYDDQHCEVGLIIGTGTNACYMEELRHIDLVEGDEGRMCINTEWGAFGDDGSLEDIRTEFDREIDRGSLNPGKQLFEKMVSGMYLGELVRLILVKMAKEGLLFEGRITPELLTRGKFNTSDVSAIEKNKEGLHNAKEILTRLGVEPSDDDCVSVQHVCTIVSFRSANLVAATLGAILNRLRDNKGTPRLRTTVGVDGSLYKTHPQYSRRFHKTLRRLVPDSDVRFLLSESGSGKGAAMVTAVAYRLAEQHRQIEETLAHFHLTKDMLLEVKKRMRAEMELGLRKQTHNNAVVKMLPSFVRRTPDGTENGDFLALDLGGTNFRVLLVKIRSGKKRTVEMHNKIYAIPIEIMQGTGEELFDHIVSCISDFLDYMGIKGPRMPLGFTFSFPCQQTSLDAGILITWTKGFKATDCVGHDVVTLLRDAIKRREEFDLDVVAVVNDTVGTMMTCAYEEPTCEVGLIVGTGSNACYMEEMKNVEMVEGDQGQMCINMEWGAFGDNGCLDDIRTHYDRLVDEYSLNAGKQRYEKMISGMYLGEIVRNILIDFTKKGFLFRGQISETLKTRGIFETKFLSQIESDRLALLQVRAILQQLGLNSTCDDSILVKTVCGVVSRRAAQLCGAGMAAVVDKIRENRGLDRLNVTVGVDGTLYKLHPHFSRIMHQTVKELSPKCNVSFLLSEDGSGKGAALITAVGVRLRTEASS
Kind of assay: SAR analysis of small molecule inhibitors of hexokinase domain containing I (HKDC1) in the hexokinase 1 selectivity assay. [Related pubchem assays (depositor defined):AID493160, AID493190]. It is filed as functional.

In a further assay the target is T5, Hexokinase HKDC1 (Homo sapiens, UniProt Q2TB90).
T5 sequence (Q2TB90 whole entry): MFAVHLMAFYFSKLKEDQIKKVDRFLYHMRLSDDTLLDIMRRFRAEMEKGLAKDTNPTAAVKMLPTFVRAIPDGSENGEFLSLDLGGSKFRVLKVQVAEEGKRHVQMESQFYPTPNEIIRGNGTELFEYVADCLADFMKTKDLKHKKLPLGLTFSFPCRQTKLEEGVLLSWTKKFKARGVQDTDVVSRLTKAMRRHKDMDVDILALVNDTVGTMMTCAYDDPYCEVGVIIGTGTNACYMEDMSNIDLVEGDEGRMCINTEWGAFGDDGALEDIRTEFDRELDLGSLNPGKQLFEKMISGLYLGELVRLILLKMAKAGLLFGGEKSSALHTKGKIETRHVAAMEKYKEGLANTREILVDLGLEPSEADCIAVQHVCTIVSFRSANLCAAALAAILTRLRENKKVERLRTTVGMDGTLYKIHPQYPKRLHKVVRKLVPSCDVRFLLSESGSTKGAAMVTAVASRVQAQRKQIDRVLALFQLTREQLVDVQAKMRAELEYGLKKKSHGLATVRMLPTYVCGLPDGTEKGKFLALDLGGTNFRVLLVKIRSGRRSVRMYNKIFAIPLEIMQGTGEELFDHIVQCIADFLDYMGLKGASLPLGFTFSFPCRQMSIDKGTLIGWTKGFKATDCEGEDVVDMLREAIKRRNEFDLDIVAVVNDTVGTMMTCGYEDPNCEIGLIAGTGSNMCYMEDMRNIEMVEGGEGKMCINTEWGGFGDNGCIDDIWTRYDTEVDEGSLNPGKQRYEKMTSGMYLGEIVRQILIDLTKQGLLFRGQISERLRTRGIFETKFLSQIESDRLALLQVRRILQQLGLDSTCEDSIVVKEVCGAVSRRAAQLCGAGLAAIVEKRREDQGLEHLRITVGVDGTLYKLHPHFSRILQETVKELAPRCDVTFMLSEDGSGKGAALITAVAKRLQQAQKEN
Description: SAR analysis of small molecule inhibitors of hexokinase domain containing I (HKDC1). [Related pubchem assays (depositor defined):AID493160, AID493190]. It is filed as functional.

Voltage-gated inwardly rectifying potassium channel KCNH2, sequence (Q12809 whole entry): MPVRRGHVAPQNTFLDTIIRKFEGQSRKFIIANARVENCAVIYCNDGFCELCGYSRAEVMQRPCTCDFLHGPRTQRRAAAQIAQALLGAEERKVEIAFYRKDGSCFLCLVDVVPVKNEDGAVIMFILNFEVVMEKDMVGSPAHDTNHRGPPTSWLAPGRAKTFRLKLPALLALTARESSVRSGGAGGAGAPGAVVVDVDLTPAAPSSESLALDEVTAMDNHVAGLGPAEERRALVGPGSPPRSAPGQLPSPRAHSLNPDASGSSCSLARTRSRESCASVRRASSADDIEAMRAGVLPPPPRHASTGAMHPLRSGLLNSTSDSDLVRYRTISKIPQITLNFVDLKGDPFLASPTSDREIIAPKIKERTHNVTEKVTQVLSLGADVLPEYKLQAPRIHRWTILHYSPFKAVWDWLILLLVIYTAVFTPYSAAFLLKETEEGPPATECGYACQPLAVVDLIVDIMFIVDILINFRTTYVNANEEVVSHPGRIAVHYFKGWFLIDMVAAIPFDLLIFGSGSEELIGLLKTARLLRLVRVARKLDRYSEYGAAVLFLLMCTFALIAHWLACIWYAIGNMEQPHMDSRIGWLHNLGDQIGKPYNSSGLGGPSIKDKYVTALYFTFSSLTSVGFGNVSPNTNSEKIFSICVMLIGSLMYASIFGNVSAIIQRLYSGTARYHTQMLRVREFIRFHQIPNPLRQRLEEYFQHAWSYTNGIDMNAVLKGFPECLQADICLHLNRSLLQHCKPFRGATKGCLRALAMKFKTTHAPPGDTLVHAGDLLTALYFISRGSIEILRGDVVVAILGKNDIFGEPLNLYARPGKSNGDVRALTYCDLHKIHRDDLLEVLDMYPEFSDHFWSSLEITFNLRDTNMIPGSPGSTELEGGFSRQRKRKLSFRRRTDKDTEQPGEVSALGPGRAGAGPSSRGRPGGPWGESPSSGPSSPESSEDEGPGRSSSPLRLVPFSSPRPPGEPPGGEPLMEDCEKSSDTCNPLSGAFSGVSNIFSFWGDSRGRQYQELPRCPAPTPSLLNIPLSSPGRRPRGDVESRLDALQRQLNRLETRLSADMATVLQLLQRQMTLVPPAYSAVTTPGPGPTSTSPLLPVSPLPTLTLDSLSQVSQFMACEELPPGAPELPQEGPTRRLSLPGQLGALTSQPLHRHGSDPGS
Eukaryotic translation initiation factor 4E, sequence (P63073 whole entry): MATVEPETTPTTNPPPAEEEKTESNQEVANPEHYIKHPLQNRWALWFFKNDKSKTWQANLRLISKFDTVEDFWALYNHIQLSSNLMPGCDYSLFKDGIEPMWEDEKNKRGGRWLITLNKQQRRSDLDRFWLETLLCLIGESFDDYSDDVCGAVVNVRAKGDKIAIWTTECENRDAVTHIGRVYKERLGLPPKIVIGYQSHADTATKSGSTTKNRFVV

As for `Cc1ccccc1N1C(=O)c2cc(S(N)(=O)=O)c(Cl)cc2NC1C` (centres undefined) [METOLAZONE], in assay [1], the AC50 is 0.112 µM (inconclusive).
In the case of `Cc1ccc(-n2c(Cl)c(Cl)nc(Cl)c2=O)cc1`, the AC50 in assay [2] is 3.58 µM (active); in assay [3], 1.38 µM (active); in [4], 1.77 µM (active); in the assay with INS1, 4.43 µM (active); in [5] it was 8.89 µM (active). The IC50 in the assay with CHO was 1.39 µM (active). Besides, the CC50 in assay [6] was 39.1 µM (active).
For the compound `NS(=O)(=O)c1cc(C(=O)NC2CCOc3ccccc32)ccc1Cl` (centres undefined), the IC50 in assay [7] and in [8] was > 100 µM (inactive) throughout.
As for `Cc1ccccc1C(N)=O`, the AC50 in assay [1] was 35.5 µM (inconclusive).
As to `Cc1nn(-c2ccccc2)c(S)c1C=Nc1cccc([N+](=O)[O-])c1`, the IC50 is > 100 µM (inactive) on Phosphomannomutase 2 and 31.1 µM (active) in assay [9].
Consider `Cc1cc(N2CCN(C(=O)c3ccc(Cl)cc3)CC2)c2ccc(F)cc2n1`, for which the concentration at half-maximal activity (AC50) in the assay with Candida albicans [10] was 15.8 µM (active); in the assay on Candida albicans [11], 49.3 µM (active); with Candida albicans [12], 14.4 µM (active).
As for `c1ccc(-c2nnc(-c3ccccn3)[nH]2)nc1`, the IC50 in assay [13] was > 100 µM (not active); in “cells” it was 2.02 µM (active); at Nonstructural protein 1 it was 2.78 µM (active) and 2.89 µM (active); in assay [14] it was > 100 µM (inactive).
For the compound `Clc1ccc(/N=c2\ssnc2Cl)cc1`, the IC50 in [15] was > 50 µM (not active); on Phosphomannomutase 2, > 100 µM (inactive); in assay [16] it was 28.2 µM (active); in assay [9] it was 12.5 µM (active). In assay [3], the concentration at half-maximal activity (AC50) was 8.4 µM (active).
On to `N=C(NOC(=O)C12CC3CC(CC(C3)C1)C2)c1ccccn1`, for which the AC50 in the assay on HeLa is 27.5 µM (active).
`O=c1c2ccccc2nc(/C=C/c2cccnc2)n1Cc1cccc(Cl)c1`: the IC50 on Hexokinase-1 and at Hexokinase HKDC1 was > 80 µM (inactive) in each case.
As to `COc1nc(C)ccc1-c1noc(-c2ccncc2)n1`, in the assay on HeLa, the AC50 was 40 µM (active).
